“Also recorded” adds a separate entry of the source. Marks after values point to notes of the source that are not given here.
Key:
Format in all cases: in vivo, mouse
p16-3MR mice [1] = assay: Next generation sequencing of circulating miRNAs in serum after induction (dox) and removal (GCV) of senescent cells; settings: NGS; for log fold change: p16-3MR mice
Method: p16-3MR (Demaria et al, 2014, Developmental Cell 31:722-733) mice were bred in house and maintained in the AALAC-accredited Buck Institute for Research on Aging (Novato, Calif.) animal facility. 10 to 12-week-old p16-3MR male mice were used for experiments. Mice were divided in 4 groups and each group consisted of 3 animals. In group A, control mice were injected with PBS. In group B, mice were treated with Ganciclovir (GCV) (Sigma-Aldrich) dissolved in PBS for 5 consecutive days. In group C, mice were treated with one dose of Doxorubicine hydrochloride (Sigma-Aldrich) dissolved in PBS. In group D, mice were first treated with Doxorubicine and then treated 10 days later with GCV. Mice were intraperitoneally injected with one dose of 10 mg/kg of Doxorubicine hydrochloride, and GCV was administered daily by intraperitoneal injections for 5 consecutive days at concentration of 25 mg/kg in PBS. 4 days after the last GCV dose, animals were euthanized with CO2 and blood was withdrawn immediately. Blood was then incubated for 30 min at room temperature and centrifuged at 3400×g for 10 min. Serum was carefully collected in a sterile tube without disturbing the cell pellet and stored at −80° C. for further experiments.
Total RNA extraction was performed from 200 μl of serum using the Qiagen miRNeasy™ extraction kit (Qiagen, Germany). RNA yield was quality checked for homogenous extraction efficiency and hemolysis on the basis qPCR amplification of spiked-in as well as hemolysis-responsive RNAs (Blondal et al). In total 2 μl total RNA were used for library preparation using the CleanTag library preparation protocol (Trilink Biotechnologies, USA), which uses chemically modified adapters to prevent adapter self-ligation. Library quality and yield was controlled using Bioanalyzer DNA-1000 chips. Due to the high purity, libraries were not purified prior to sequencing on an ILLUMINA™ NextSeq 500 sequencing system with 50 bp single-end reads.
Next-generation sequencing was performed at Exiqon (Denmark). Raw reads were quality filtered for a Q-score of 30 or higher. Adapter sequences were trimmed and the remaining reads were mapped against the mouse genome, miRBase, non-coding RNA databases and classified as either microRNAs, small RNAs, genome mapping RNAs or outmapped RNA sequences. Read counts were added for all microRNA isoforms (isomiRs) and normalized by dividing the microRNA read count by the total number of mapped reads and multiplying by 1 million (Tags Per Million). Tags per millions were used for data mining (PCA and hierarchical clustering) using the web-tool clustvis (Metsalu and Vilo 2015).
For differential expression analysis, the EdgeR statistical software package was used. For normalization, the trimmed mean of M-values method was used based on log-fold and absolute gene wise changes in expression levels between samples (TMM normalization). […] Additionally, the normalization step offsets under-sampling effects (due to highly expressed microRNAs dominating the read set) by identifying scaling factors that minimize log-fold changes between samples across the majority of microRNAs.
For exploratory data analysis we applied principal component analysis (PCA) to the dataset of 50 most variable microRNAs according to the coefficient of variation. The PCA plot clearly indicates an effect of […] (dox) treatment on circulating microRNA levels in p16-3MR mice compared to the PBS treated control animals (FIG. 2). […] Analysis of differentially circulating miRNAs was focused on changes between dox treated versus control (PBS) to identify those miRNAs that are modulated by induction of senescence, as well as dox-GCV vs dox, in order to identify miRNAs that change after removal of senescent cells. A p-value threshold of <0.05 without correction for multiple testing was used. […] GCV-treated animals are supposed to have a reduced number of senescent cells compared to PBS due to forced apoptosis. […]

p16-3MR mice [2] = assay: RT-qPCR verification of serum circulating microRNA changes, one-way ANOVA
Method: p16-3MR (Demaria et al, 2014, Developmental Cell 31:722-733) mice were bred in house and maintained in the AALAC-accredited Buck Institute for Research on Aging (Novato, Calif.) animal facility. 10 to 12-week-old p16-3MR […] mice were used for experiments. Mice were divided in 4 groups and each group consisted of 8 animals, 5 female, and 3 male, respectively. In group A, control mice were injected with PBS. In group B, mice were treated with Ganciclovir (GCV) (Sigma-Aldrich) dissolved in PBS for 5 consecutive days. In group C, mice were treated with one dose of Doxorubicine hydrochloride (Sigma-Aldrich) dissolved in PBS. In group D, mice were first treated with Doxorubicine and then treated 10 days later with GCV. Mice were intraperitoneally injected with one dose of 10 mg/kg of Doxorubicine hydrochloride, and GCV was administered daily by intraperitoneal injections for 5 consecutive days at concentration of 25 mg/kg in PBS. 4 days after the last GCV dose, animals were euthanized with CO2 and blood was withdrawn immediately. Blood was then incubated for 30 min at room temperature and centrifuged at 3400×g for 10 min. Serum was carefully collected in a sterile tube without disturbing the cell pellet and stored at −80° C. for further experiments.
Total RNA extraction was performed from 200 μl of serum using the Qiagen miRNeasy extraction kit (Qiagen, Germany). RNA yield was quality checked for homogenous extraction efficiency and hemolysis on the basis qPCR amplification of spiked-in as well as hemolysis-responsive RNAs (Blondal et al). In total 2 μl total RNA were used for reverse transcription using the Exiqon Universal RT kit II (Exiqon, Denmark). The obtained cDNA samples were pre-diluted 1:40 and subsequently mixed with SYBR Green® Mix (Exiqon, Denmark) to achieve a 1:100 dilution. The mix was distributed to primer-coated 384-well plates containing dried primer pairs for 96 selected microRNA or quality control assays. QPCR amplification was performed on a Roche LightCycler 480 II, using the manufacturer's recommendation for annealing, extension and denaturation.
Raw Cq-values were computed using the 2nd derivative method. Melting curves were checked for peaks to ensure specificity of the amplification reactions. Cq-values were subsequently normalized using Spike-In controls as references, to reduce technical noise in the data.
(§1) Statistical analysis was performed using Medcalc (version 18.2.1). Normal distribution was assessed using D'Agostino-Pearson test, where normality was accepted at p>0.05. One-way ANOVA together together with Student-Newman-Keuls test for all pairwise comparisons (post-hoc tests) was used to identify significant changes between groups (p<0.05). To assess the discriminatory power of individual microRNAs, receiver operating characteristic (ROC) analysis was applied. ROC curves were plotted using sensitivity (y-axis) and 1-specificity (x-axis) and the area under the ROC curve (AUC) was calculated. MicroRNAs with AUC-values of >0.7 were considered as good discriminators/biomarkers. MicroRNAs with AUC-values >0.8 were considered very good discriminators/biomarkers.

p16-3MR mice [3] = assay: ROC analysis of discriminatory power of circulating microRNAs; settings: serum, RT-qPCR, symbol after the number = significance
Method: as §1
In order to assess the diagnostic power of circulating microRNAs for the exposure with senescence inducing substances (DOX) as well as the efficacy of senolytic treatment, ROC analysis was performed and the area-under-the-curve (AUC) was calculated. […] Table 23 below summarizes AUC values as well as 95% confidence intervals for 24 selected circulating microRNAs.

“miR-34a-5p: circulating microRNA biomarker, SEQ ID No. 1 (UGGCAGUGUCUUAGCUGGUUGU; expressed or natural sequence; listed as Homo sapiens)” was tested, and the “serum level after rescue with dox+GCV (removal of senescent cells)” value (p16-3MR mice [1]; in words) was “decreased”, the “serum level in dox-treated animals compared to PBS controls” value (p16-3MR mice [1]; in words) was “higher; also recorded: increased” and the “serum level after rescue with dox+GCV (removal of senescent cells)” value (p16-3MR mice [1]; in words, listed as miR-34a) was “significant decline”. The “avg TPM GCV” value (p16-3MR mice [1]; serum miRNA, comparison group of Table 17, printed GCV) was 8.00 TPM, the “avg TPM dox + GCV” value (p16-3MR mice [1]; serum miRNA, dox + GCV treated p16-3MR mice) was 2.33 TPM and the log fold change (p16-3MR mice [1]; serum miRNA, dox + gcv vs gcv (so in the source)) was −1.34. For the same substance, the log fold change (p16-3MR mice [1]; serum miRNA, dox vs pbs) was 1.13, the “avg TPM dox” value (p16-3MR mice [1]; serum miRNA, dox-treated p16-3MR mice) was 8.00 TPM and the “regulation in serum after exposure to DOX compared to PBS” value (p16-3MR mice [2]; independent of gender, in words) was “significantly (up- or down-regulated)”. For the same substance, the “One-way ANOVA Senolytic Treatment (DOX/GCV)” value (p16-3MR mice [2]; serum, DOX/GCV compared to DOX) was “○”, the “One-way ANOVA Senescence (DOX vs PBS)” value (p16-3MR mice [2]; serum, n=8 per group, male and female mice) was “* (significant p < 0.05)” and the “ROC Analysis AUC Senescence” value (p16-3MR mice [3]; DOX vs PBS) was 1.000*. The “ROC Analysis AUC Senolytic Treatment” value (p16-3MR mice [3]; DOX/GCV vs DOX) was 0.672°.
